# Test results reported in patent publication US10941120B1, “6-aminouracil cassic acid ester with antibacterial activity and a method of preparing the same” (SHAANXI UNIVERSITY OF SCIENCE AND TECHNOLOGY, priority 2020, dated 2021).
# What was measured:
# Assay type in all cases: cell-based
# [1] = tested on: carbapenem-resistant Acinetobacter baumannii CR-AB 18-560; test: MIC by microbroth dilution, CR-AB 18-560
# Source text: (§1) The minimal inhibitory concentration (MIC) of the compounds as determined by a microbroth dilution method with gentamicin, cefazolin sodium and ceftriaxone sodium as positive control.
# (§2) The experimental strains included methicillin-resistant Gram-positive bacteria: methicillin-resistant Staphylococcus aureus MRSA 18-222, 18-575; multiple drug-resistant […] bacteria: vancomycin-resistant enterococci VRE 18-80, 18-94; multidrug-resistant Pseudomonas aeruginosa MDR-PA 18-1774, 18-202; carbapenem-resistant Acinetobacter baumannii CR-AB 18-183, 18-560. All the experimental strains were donated by Huashan Hospital affiliated to Fudan University (Institute of Antibiotics, Fudan University) and used after routine identification.
# (§3) Preparation of Test Strains:
# (§4) Preparation of MHB medium: 20.0 g MHB medium was added to 1 L distilled water, boiled until completely dissolved, packed in conical bottles and sterilized at 121° C. for 15 min.
# (§5) The experimental strain was cultured to the logarithmic growth phase: under aseptic condition, the experimental strain was inoculated into 100 mL NMB medium and incubated in a constant temperature and humidity incubator at 37° C. for 20-22 hours.
# (§6) Preparation of storage solution: weigh the sample to be tested, dissolve it with 1% DMSO solution, prepare a storage solution with a concentration of 2560 μg/mL, weigh a positive reference substance, dissolve it with aseptic distilled water, and configure a storage solution with a concentration of 2560 μg/mL.
# (§7) Preparation of bacterial suspension: under aseptic condition, the experimental strains cultured to logarithmic growth phase were adjusted to 0.5 MCF turbidity standard with MHB medium and diluted according to 1:10, and the bacterial suspension with concentration of 10^6 CFU/mL was prepared for standby.
# (§8) Dilution of storage solution and inoculation of experimental strain: under aseptic condition, the storage solution was diluted to 256 μg/mL solution. Take a sterile 96-well plate, add 200 μL MHB medium to the 12th well, and add 100 μL MHB medium to each well. Add 100 μL of positive control solution to the first well, mix well, and suck 100 μL from it and discard. Add 100 μL of the compound sample solution to the second well, mix well, and then pipette 100 μL to the third well. After mixing, pipette 100 μL to the fourth well, and dilute to the 11th well in this way. Finally, 100 μL was pipetted from the 11th well and discarded. The 12th hole was the growth control without drugs. So far, the concentration of the positive reference substance is 128 μg/mL, the concentrations of the sample solution are 128, 64, 16, 8, 4, 2, 1, 0.5, 0.25 μg/mL respectively. Then, 100 μL of the prepared bacterial suspension is added to each well, so that the final concentration of the bacterial liquid in each well is 5×10^5 CFU/mL.
# (§9) Incubation: Cover the 96-well plate inoculated with the experimental strains, and incubate in a constant temperature and humidity box at 37° C. for 20-22 hours.
# [2] = tested on: methicillin-resistant Staphylococcus aureus MRSA 18-222; test: MIC by microbroth dilution, MRSA 18-222
# Source text: as §1, §2, §3, §4, §5, §6, §7, §8, §9
# [3] = tested on: methicillin-resistant Staphylococcus aureus MRSA 18-575; test: MIC by microbroth dilution, MRSA 18-575
# Source text: as §1, §2, §3, §4, §5, §6, §7, §8, §9
# [4] = tested on: multidrug-resistant Pseudomonas aeruginosa MDR-PA 18-202; test: MIC by microbroth dilution, MDR-PA 18-202
# Source text: as §1, §2, §3, §4, §5, §6, §7, §8, §9
# [5] = tested on: vancomycin-resistant enterococci VRE 18-80; test: MIC by microbroth dilution, VRE 18-80
# Source text: as §1, §2, §3, §4, §5, §6, §7, §8, §9
# [6] = tested on: carbapenem-resistant Acinetobacter baumannii CR-AB 18-183; test: MIC by microbroth dilution, CR-AB 18-183
# Source text: as §1, §2, §3, §4, §5, §6, §7, §8, §9
# [7] = tested on: multidrug-resistant Pseudomonas aeruginosa MDR-PA 18-174; test: MIC by microbroth dilution, MDR-PA 18-174; conditions: for Minimum bacteriostatic concentration: MDR-PA 18-174
# Source text: as §1, §2, §3, §4, §5, §6, §7, §8, §9
# In FIGS. 1-6, the twelve wells represent twelve groups, from left to right, positive, 128 μg/mL, 64 μg/mL, 32 μg/mL, 16 μg/mL, 8 μg/mL, 4 μg/mL, 2 μg/mL, 1 μg/mL, 0.25 μg/mL, 0.0625 μg/mL, Negative.
# [8] = tested on: vancomycin-resistant enterococci VRE 18-94; test: MIC by microbroth dilution, VRE 18-94; conditions: for Minimum bacteriostatic concentration: VRE 18-94
# Source text: as §1, §2, §3, §4, §5, §6, §7, §8, §9
# [9] = tested on: drug-resistant bacteria; test: Antibacterial activity test, whole panel of drug-resistant strains; conditions: all tested strains, summary in words
# Source text: as §1, §2, §3, §4
# The experimental strain was cultured to the logarithmic growth phase: under aseptic condition, the experimental strain was inoculated into 100 mL NMB medium and incubated in a constant temperature and humidity incubator at 37° C. for 20-22 hours. […]
Compound,Minimum bacteriostatic concentration [1] [µg/mL],Minimum bacteriostatic concentration [2] [µg/mL],Minimum bacteriostatic concentration [3] [µg/mL],Minimum bacteriostatic concentration [4] [µg/mL],Minimum bacteriostatic concentration [5] [µg/mL],Minimum bacteriostatic concentration [6] [µg/mL],Minimum bacteriostatic concentration [7] [µg/mL],Minimum bacteriostatic concentration [8] [µg/mL],inhibitory effect on drug-resistant bacteria [9],"MIC ([7]; multi-drug resistant Pseudomonas aeruginosa MDR-PA, strain not given) [µg/mL]","MIC ([8]; vancomycin resistant Enterococcus VRE, strain not given) [µg/mL]"
Nc1cc(=O)[nH]c(=O)[nH]1 [6-Aminouracil],>128,>128,>128,>128,>128,>128,>128,>128,no inhibitory effect,,
"O=C(Nc1cc(=O)[nH]c(=O)[nH]1)c1cc(O)c2c(c1)C(=O)c1cccc(O)c1C2=O [6-Aminouracil cassic acid ester, N-(2,6-dioxo-1,2,3,6-tetrahydropyrimidin-4-yl)-4,5-dihydroxy-9,10-dioxo-9,10-dihydroanthracene-2-carboxamide]",>128,>128,>128,>128,>128,>128,128,64,,128,64
"CO/N=C(\C(=O)N[C@@H]1C(=O)N2C(C(=O)O)=C(CSc3nc(=O)c(=O)[nH]n3C)CS[C@H]12)c1csc(N)n1 [Ceftriaxone sodium, ceftriaxone sodium]",>128,>128,>128,16,8,>128,128,>128,,,
O=C(O)c1cc(O)c2c(c1)C(=O)c1cccc(O)c1C2=O [Cassic acid],>128,>128,>128,>128,>128,>128,>128,>128,no inhibitory effect,,
gentamicin,>128,128,2,0.0625,0.0625,>128,0.0625,>128,,,
"Cc1nnc(SCC2=C(C(=O)O)N3C(=O)[C@@H](NC(=O)Cn4cnnn4)[C@H]3SC2)s1 [Cefazolin sodium, cefazolin sodium]",>128,>128,>128,128,32,>128,8,>128,,,
